# Results taken from patent US7572436B1, “Thionin as an antineoplastic and immunostimulant” (priority 2000, dated 2009).
# Where no end group is shown, it is not given here.
# Experiments:
# IL-1 = experiment: ELISA of IL-1 production by splenocytes; assay type: cell-based, Balb C murine; conditions: 48 hours, PT 0.05 μg/ml
# Protocol: Identical plates are set up for an immunoassay and a mitogen assay. Mouse splenocytes and immuno-stimulating drugs are plated in duplicate wells (immunoassay) and triplicate wells (mitogen assay) in 96-well microplates as described above. The incubation at 37° C. in a humidified 5% CO2 incubator may vary from three to five days. At the end of the activation/proliferation period, the two identical plates are harvested as an immunoassay for cytokines or harvested as a mitogen assay (to which ^3H-thymidine has been added approximately 16-18 hours earlier).
# Immunoassay kits used to detect IL-1β, IL-2, and IL-12 were the murine Quantikine M™ kits produced by R&D Systems (Minneapolis, Minn.). The general procedure is the same for all interleukin cytokines, and is described in the instructions provided by the manufacturer. All reagents are used at room temperature, and are prepared according to kit instructions.
# The immunoassay plate is centrifuged at 200×g to pellet all cells. A 50 μl aliquot of Assay Diluent is first added to the center of each special enzyme-coated well supplied with the kit. Next, 50 μl of standard, control or test sample of supernatant from the immunoassay incubation plate is added to each well. This is incubated at room temperatures for two hours.
# Liquid is aspirated from the wells, and the wells are washed five times with surfactant diluted 1:25 with distilled water. A 100 μL aliquot of Conjugate is added to each well and incubated two hours at room temperature. The wells are again aspirated and each well washed five times.
# One hundred microliters of Substrate Solution are added to each well and incubated 30 minutes at room temperature. Stop Solution (100 μl) is then added to each well. The color change is light blue to yellow (activity). The plate is read for absorbence at 450 nm and at 540 nm for background readings.
# To calculate the results, the duplicate readings for each pair of standard, control, and test samples are averaged and the average background optical density readings are subtracted. A standard curve is constructed for the cytokine by plotting the mean absorbence for each standard on the y-axis against the concentration on the x-axis and drawing a best-fit curve. Picograms of cytokine are determined from the standard curve. Mitogenic activity determined from the cpm of ^3H-thymidine is compared to the concentrations of cytokine in the experimental samples in the corresponding immunoassay.
# One measure of macrophage activation is the production of the cytokine interleukin-1 (IL-1) and also interleukin-12 (IL-12). Incubation of 3×10^5 Balb C murine spleen cells with 0.05 μg/ml PT was performed for 48 hours. The supernatant fluid was assayed with commercial ELISA kits for IL-1 and IL-12. […] Some experiments gave less […] and some more. This is likely a reflection of the state of the immune system in the experimental mice. The addition of KLH, an effective antigen, increased both IL-1 and IL-12 production, and the addition of PT along with the KLH further increased the production of these cytokines.
# [1] = Stability of PT (temperature, proteases); assay type: physicochemical
# [2] = test system: membrane structure of cells or phospholipid vesicles; conditions: reported in the literature; begin around this value and continue up to and above 20 μg/ml; cited from earlier work
# [3] = test system: B16F10 melanoma tumor cells; experiment: In vivo inhibition of B16F10 melanoma tumor development; parameters: species or system C57BL/6NCr female mice
# Protocol: C57BL/6NCr female mice (20 g), approximately 50 days old, were shaved in the abdominal area, ear notched for identification, and, two or three days prior to receiving tumor cells, pre-injected subcutaneously with the immunostimulating drugs described.
# On “day zero,” B16F10 melanoma tumor cells, cultured in αMEM medium with 10% FBS, were injected intradermally (10^5 cells in 0.1 ml) in the center of the mouse abdomen using a 26 gauge ½ inch needle. Four to five hours later, the drug treatment (as specified) was injected intradermally in a different area of the abdomen than the site of the tumor injection.
# Intradermal treatments using the immunostimulatory drug (as specified) continued either every other day or on a Monday-Wednesday-Friday injection schedule. Control tumors (in mice not receiving an immunostimulatory drug) usually formed within seven to ten days. Tumors were examined by visual inspection, measured (length by width), and the area of any resulting lesion was recorded as mm^2 every five days.
# Mice were euthanized by CO2 inhalation if the tumor exceeded 500 mm^2. Some experiments were terminated early if all mice in the control group were dead, but the experiments were not less than 20 days. The normal duration of an experiment was about 30 days.
# Pyrularia thionin, both alone and in combination with IL-2, was effective in preventing or retarding the development of melanoma tumors when C57BL/6NCr mice were pretreated before injection with B16F10 cells, which produce melanoma tumors.
# non-adherent human PBLs = experiment: Mitogen assay (^3H-thymidine uptake), human PBLs; assay type: cell-based; conditions: PT 0.01 μg/ml
# From the text: Murine spleen cells or human peripheral blood lymphocytes (PBLS) were obtained aseptically as described herein for use in the mitogen assay. When murine splenocytes were used, they were first treated with red cell lysing buffer (0.17 M Tris, 0.144 NH4C1, pH 7.2), washed in RPMI-10 (standard RPMI growth medium, Sigma Chemical Co., St. Louis, Mo., supplemented with 10% fetal bovine serum) and viable cells counted using Trypan Blue exclusion. Human PBLs were isolated from blood using HISTOPAQUE™-1077, a solution of FICOLL™ and sodium diatrizoate (Sigma Chemical Co., St. Louis, Mo.), and subsequent washings with RPMI-5 (RPMI supplemented with 5% fetal bovine serum) to remove platelets. Isolated lymphocytes were resuspended in RPMI-10 and a viable cell yield determined by Trypan Blue exclusion.
# Drugs and known mitogenic controls were added in triplicate to a 96-well flat bottom microplate aseptically. The culture medium was RPMI-10. Splenocytes or human-lymphocytes were added at a concentration of 3-4×10^5 cells/well, to a final volume of 200 μl/well. The assay plate was incubated at 37° C. in a 5% CO2 humidified incubator. At 48-50 hours, ^3H-thymidine was added (1 μCi/well), and the plate was harvested approximately 16-18 hours later.
# Mitogen assay microplates were harvested using an Inotech plate harvester (Inotech Biosystems International, Inc., Rockville, Md.). Counts per minute (cpm) per well were measured using the Berthold-Inotech Trace 96-plate reader (Inotech AT, Wohlen, Switzerland) and/or a scintillation counter (Packard Tri-carb 2100TR, Packard Instrument Co., Meriden, Conn.). Mitogenic activity was directly determined by comparing cpm levels to controls.
# To test whether PT stimulates mitogen activity, splenocytes were incubated for two days with IL-2 (50 units/ml) or KLH (20 μg/ml) in conjunction with PT in the concentrations shown. Figures represent the radioactivity counts of tritiated thymidine taken up during a subsequent 20-hour incubation period of cells incubated with tritiated thymidine in RPMI.
substance,measurement,setting,value
Pyrularia thionin (KSCCRNTWARNCYNVCRLPGTISREICAKKCDCKIISGTTCPSDYPK; ends and bridges not checked; also: labeled with 125I) [PT],IL-1,"IL-1; Experiment 1, KLH 10 μg/ml, control 3.9",6.0 ± 0.2 pg/mL
same,IL-1,"IL-1; Experiment 3, control 2",2.4 ± 0 pg/mL
same,IL-1,"IL-1; Experiment 4, KLH (20 mg/ml), control 9",14 ± 0.9 pg/mL
same,interaction with cell membranes after exposure to temperature,[1]; 70° C.,not influenced
same,resistance to proteases,[1]; common proteases found in blood,resistant to the common proteases found in blood
same,concentrations required to induce changes in the membrane structure of cells or phospholipid vesicles,[2],≥ 1000 ng/mL
same,development of tumors compared to mice injected with saline,[3]; 3 μg PT (with or without 100 units murine IL-2) sc five and two days prior to B16 cells and three times weekly thereafter,slowed the development of tumors
same,Average Tumor Size,"[3]; B16 melanoma in C57 mice, sc 3 μg PT, 100 units IL-2, 20-31 days",191 mm^2
same,Number of Deaths,"[3]; B16 melanoma in C57 mice, sc 3 μg PT, 100 units IL-2, total mice 12 (IL-2), 15 (PT), 24 (PT + IL-2)",1
same,Mice w/o Tumors,"[3]; B16 melanoma in C57 mice, sc 3 μg PT, 100 units IL-2, total mice 12 (IL-2), 15 (PT), 24 (PT + IL-2), 20-31 days",1
same,remission of established tumors,"[3]; B16 melanoma, Table 2 and FIG. 2",did not cause remission of established tumors
same,PT dose giving the best response,"[3]; PT injected along with IL-2, per mouse",3 µg
same,PT dose with little protection,"[3]; per mouse, with IL-2",> 5 µg
same,CPM of tritiated thymidine incorporated,non-adherent human PBLs; RPMI,724 ± 212 CPM
same,CPM of tritiated thymidine incorporated,non-adherent human PBLs; RPMI + IL-2 50 units/ml,"2,584 ± 527 CPM"
